Reference: paper PMC4979471 (Cell Death Discovery, 2015)
Where two headings read alike, the source gives them in different places.

Assays:
Assay in all cases: Kinase selectivity, P33-radiolabeled assay
Type in all cases: biochemical
Conditions in all cases: 10 μM ATP
[1] = target: T1, PAK6 (Homo sapiens, UniProt Q9NQU5)
T1 construct: purchased Reaction Biology Corp
Description: (§1) The compound was tested at a single dose in duplicate at 10 μM. Reactions were carried out at 10 μM ATP. Data are reported as % enzyme activity (relative to DMSO controls). The full data set is shown in the Supplementary Table I.

[2] = target: T2, CLK2 (Homo sapiens, UniProt P49760)
T2 construct: purchased Reaction Biology Corp
T2 sequence (P49760 whole entry): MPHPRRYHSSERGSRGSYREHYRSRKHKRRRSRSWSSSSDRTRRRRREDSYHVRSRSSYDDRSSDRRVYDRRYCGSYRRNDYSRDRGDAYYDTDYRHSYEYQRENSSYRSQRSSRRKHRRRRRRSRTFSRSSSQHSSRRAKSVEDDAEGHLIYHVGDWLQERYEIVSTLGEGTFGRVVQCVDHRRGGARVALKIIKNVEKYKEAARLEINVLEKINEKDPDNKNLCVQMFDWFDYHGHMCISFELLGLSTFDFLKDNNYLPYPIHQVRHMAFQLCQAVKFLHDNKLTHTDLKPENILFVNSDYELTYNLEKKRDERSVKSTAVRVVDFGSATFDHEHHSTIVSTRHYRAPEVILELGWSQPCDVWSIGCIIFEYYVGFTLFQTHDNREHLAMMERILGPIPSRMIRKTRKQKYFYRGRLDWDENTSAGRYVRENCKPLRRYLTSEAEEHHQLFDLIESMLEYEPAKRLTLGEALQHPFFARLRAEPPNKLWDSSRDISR
Description: as §1

[3] = target: T3, DDR2 (Homo sapiens, UniProt Q16832)
T3 construct: purchased Reaction Biology Corp
T3 sequence (Q16832 22-855): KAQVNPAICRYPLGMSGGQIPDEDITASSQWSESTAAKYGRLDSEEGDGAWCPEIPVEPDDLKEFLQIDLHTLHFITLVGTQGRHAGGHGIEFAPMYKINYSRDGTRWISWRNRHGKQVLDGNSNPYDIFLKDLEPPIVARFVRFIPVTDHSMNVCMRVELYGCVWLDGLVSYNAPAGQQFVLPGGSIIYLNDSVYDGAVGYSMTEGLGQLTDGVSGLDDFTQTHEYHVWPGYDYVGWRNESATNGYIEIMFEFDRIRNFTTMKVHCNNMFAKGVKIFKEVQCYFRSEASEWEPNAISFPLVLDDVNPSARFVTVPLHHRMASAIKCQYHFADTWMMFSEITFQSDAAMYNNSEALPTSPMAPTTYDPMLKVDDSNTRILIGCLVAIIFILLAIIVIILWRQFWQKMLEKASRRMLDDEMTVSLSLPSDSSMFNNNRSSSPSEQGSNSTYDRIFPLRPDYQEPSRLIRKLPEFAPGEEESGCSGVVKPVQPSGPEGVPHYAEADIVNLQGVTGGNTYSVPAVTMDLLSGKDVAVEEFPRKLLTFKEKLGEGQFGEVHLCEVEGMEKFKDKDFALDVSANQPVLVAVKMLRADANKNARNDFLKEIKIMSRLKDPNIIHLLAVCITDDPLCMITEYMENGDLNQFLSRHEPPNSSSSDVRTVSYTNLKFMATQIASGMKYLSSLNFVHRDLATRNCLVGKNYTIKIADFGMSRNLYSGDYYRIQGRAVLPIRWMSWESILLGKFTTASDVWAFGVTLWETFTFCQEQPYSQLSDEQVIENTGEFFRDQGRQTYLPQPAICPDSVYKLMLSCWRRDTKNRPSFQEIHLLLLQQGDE
Description: as §1

[4] = target: T4, MLK3/MAP3K11 (Homo sapiens, UniProt Q16584)
T4 construct: purchased Reaction Biology Corp
T4 sequence (Q16584 whole entry): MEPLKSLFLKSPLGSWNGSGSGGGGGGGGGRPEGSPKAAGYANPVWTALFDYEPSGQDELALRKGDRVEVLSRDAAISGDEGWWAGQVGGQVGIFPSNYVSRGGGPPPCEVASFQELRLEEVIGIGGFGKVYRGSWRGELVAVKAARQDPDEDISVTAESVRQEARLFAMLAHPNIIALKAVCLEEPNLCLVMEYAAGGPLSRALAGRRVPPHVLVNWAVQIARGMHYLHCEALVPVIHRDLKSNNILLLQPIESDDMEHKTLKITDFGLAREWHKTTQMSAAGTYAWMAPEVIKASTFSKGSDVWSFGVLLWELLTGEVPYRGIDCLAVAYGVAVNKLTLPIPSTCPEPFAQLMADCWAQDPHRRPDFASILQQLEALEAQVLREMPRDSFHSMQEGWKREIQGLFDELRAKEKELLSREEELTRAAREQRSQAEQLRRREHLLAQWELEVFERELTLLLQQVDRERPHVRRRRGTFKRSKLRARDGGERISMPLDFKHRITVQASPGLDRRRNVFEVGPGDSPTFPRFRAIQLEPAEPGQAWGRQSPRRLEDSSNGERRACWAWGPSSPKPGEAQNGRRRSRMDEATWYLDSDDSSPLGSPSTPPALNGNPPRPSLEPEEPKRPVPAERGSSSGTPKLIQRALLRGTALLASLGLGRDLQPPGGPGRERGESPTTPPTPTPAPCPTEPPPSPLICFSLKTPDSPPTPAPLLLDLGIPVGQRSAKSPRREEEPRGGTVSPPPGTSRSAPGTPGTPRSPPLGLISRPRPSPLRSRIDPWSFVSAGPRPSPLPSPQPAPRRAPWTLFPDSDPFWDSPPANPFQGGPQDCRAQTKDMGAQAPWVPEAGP
Description: as §1

[5] = target: T5, TXK (Homo sapiens, UniProt P42681)
T5 construct: purchased Reaction Biology Corp
T5 sequence (P42681 1-527): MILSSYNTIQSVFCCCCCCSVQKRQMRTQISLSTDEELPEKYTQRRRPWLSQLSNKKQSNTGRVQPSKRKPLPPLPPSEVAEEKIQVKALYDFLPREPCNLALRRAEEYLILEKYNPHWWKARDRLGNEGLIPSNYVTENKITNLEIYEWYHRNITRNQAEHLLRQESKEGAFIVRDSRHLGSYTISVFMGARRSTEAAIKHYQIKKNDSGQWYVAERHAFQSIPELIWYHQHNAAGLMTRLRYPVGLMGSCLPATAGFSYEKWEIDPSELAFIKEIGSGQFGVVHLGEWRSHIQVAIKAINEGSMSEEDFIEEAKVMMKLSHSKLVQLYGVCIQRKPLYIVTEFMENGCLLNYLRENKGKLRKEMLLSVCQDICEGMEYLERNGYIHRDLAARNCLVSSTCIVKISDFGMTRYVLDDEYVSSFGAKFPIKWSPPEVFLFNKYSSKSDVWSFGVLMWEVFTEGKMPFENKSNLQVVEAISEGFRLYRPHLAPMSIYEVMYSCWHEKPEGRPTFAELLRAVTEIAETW
Description: as §1

[6] = target: T6, CAMK1b (Homo sapiens, UniProt Q6P2M8)
T6 construct: purchased Reaction Biology Corp
T6 sequence (Q6P2M8 whole entry): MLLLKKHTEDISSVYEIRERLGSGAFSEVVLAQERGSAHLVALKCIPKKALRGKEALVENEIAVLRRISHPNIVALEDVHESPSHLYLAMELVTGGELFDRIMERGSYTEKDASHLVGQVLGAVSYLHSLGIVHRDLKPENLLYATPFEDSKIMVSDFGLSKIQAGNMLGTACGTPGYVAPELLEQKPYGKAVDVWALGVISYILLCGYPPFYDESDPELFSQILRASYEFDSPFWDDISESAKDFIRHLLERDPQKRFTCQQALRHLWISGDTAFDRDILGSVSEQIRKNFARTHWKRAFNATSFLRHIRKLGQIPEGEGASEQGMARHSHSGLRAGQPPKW
Description: as §1

[7] = target: T7, MSK2/RPS6KA4 (Homo sapiens, UniProt O75676)
T7 construct: purchased Reaction Biology Corp
T7 sequence (O75676 whole entry): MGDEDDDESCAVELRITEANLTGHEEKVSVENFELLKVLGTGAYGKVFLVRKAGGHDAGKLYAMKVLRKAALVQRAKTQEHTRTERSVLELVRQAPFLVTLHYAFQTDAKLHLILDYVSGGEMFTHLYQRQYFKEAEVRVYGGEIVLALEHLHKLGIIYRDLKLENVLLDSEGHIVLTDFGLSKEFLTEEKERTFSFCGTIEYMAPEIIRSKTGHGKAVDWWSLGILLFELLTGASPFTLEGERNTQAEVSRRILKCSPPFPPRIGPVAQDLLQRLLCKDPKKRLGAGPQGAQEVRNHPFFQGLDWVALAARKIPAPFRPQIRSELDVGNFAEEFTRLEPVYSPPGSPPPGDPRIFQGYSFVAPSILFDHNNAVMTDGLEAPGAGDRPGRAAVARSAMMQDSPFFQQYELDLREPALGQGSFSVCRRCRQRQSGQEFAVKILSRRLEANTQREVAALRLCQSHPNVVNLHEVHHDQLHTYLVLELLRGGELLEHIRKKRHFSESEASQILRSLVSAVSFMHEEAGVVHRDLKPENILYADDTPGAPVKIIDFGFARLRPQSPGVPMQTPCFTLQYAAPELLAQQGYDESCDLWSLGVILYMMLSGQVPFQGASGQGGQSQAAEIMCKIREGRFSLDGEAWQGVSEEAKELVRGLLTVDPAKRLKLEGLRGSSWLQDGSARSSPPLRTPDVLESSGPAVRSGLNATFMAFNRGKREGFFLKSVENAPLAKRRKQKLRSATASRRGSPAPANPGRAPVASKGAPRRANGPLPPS
Description: as §1

[8] = target: T8, GRK2 (Homo sapiens, UniProt P25098)
T8 construct: purchased Reaction Biology Corp
T8 sequence (P25098 1-689): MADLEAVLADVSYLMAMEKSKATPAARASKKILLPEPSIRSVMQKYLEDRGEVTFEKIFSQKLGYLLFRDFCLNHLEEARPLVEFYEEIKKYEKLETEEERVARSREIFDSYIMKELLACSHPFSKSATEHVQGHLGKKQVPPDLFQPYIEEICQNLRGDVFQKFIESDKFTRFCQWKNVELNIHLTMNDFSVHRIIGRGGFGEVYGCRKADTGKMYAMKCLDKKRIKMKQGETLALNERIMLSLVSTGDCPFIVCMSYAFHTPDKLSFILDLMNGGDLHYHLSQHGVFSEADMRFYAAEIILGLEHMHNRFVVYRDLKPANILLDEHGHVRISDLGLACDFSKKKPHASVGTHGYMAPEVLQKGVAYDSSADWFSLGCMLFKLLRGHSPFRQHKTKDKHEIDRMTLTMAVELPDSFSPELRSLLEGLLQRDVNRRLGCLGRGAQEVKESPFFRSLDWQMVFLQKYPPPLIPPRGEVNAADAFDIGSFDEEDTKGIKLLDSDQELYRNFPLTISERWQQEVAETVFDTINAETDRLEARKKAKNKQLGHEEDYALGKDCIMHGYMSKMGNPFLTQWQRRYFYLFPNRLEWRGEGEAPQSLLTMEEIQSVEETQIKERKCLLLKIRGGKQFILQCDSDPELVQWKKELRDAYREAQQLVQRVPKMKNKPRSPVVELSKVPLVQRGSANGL
Description: as §1

[9] = target: T9, MELK (Homo sapiens, UniProt Q14680)
T9 construct: purchased Reaction Biology Corp
T9 sequence (Q14680 whole entry): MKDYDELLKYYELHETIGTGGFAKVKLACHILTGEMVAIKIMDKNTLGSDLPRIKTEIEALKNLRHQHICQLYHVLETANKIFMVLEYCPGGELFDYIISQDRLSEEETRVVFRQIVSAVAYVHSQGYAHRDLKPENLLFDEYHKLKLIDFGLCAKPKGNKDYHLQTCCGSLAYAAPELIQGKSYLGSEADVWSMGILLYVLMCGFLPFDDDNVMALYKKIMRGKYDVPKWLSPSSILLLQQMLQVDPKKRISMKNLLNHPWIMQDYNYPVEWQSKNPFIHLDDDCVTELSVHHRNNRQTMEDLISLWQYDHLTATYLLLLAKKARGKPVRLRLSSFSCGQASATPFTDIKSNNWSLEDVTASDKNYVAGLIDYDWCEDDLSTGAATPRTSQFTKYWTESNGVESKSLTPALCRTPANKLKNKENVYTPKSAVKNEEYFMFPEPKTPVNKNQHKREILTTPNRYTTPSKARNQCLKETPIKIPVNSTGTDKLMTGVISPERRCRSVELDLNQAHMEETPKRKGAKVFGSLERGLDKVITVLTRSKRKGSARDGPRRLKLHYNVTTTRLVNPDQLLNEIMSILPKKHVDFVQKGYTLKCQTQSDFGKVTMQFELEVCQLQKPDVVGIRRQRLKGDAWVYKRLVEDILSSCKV
Description: as §1

[10] = target: T10, VRK2 (Homo sapiens, UniProt Q86Y07)
T10 construct: purchased Reaction Biology Corp
T10 sequence (Q86Y07 whole entry): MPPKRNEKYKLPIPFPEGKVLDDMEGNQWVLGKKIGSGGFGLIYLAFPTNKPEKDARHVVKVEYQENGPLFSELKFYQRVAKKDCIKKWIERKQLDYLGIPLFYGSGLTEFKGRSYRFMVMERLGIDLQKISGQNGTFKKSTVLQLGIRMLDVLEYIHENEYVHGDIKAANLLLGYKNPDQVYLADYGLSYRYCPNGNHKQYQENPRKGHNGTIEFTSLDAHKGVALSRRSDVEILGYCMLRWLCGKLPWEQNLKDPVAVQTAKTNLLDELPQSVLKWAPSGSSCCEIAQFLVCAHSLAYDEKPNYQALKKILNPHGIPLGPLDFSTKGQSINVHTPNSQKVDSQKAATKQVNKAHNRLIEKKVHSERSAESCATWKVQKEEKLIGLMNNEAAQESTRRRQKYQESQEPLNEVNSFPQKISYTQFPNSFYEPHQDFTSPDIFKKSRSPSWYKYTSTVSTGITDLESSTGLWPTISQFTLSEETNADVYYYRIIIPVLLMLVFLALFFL
Description: as §1

[11] = read-out: % Enzyme Activity (relative to DMSO controls) AVG
[12] = read-out: % Enzyme Activity (relative to DMSO controls) Data 1
[13] = read-out: % Enzyme Activity (relative to DMSO controls) Data 2

T1 sequence (Q9NQU5 whole entry): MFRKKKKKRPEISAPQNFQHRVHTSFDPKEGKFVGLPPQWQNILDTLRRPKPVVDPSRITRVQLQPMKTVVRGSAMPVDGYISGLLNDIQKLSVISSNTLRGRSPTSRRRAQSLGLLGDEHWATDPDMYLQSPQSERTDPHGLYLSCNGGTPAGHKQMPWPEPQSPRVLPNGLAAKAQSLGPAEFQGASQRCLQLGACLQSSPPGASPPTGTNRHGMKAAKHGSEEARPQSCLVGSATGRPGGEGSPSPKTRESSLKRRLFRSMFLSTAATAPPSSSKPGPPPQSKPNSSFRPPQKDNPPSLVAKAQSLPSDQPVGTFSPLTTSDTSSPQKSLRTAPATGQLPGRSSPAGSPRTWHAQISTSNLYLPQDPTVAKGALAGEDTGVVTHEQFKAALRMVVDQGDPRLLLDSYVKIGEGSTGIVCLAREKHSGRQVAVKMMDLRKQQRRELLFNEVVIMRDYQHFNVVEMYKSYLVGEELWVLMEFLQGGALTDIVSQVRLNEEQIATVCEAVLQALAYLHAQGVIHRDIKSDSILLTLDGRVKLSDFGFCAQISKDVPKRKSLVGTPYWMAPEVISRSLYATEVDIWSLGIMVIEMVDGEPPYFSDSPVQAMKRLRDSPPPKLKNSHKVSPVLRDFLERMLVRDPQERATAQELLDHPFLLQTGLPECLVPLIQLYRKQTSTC

`CC(C)(C)C(=O)N1N=CC[C@H]1c1ccccc1` [GSK′963] gave a remaining activity at 10 µM [1, 11] of 97.1%, a remaining activity at 10 µM [1, 12] of 99.6% and a remaining activity at 10 µM [1, 13] of 94.7%. For the same molecule, the remaining activity at 10 µM [2, 11] was 101%, the remaining activity at 10 µM [2, 12] was 102% and the remaining activity at 10 µM [2, 13] was 99.7%. It also gave a remaining activity at 10 µM [3, 11] of 93.2%, a remaining activity at 10 µM [3, 12] of 94% and a remaining activity at 10 µM [3, 13] of 92.4%. The remaining activity at 10 µM [4, 11] was 95%, the remaining activity at 10 µM [4, 12] was 96% and the remaining activity at 10 µM [4, 13] was 94%. The remaining activity at 10 µM [5, 11] was 96.3%, the remaining activity at 10 µM [5, 12] was 95.7% and the remaining activity at 10 µM [5, 13] was 96.8%. It also gave a remaining activity at 10 µM [6, 11] of 96.4%, a remaining activity at 10 µM [6, 12] of 97.1% and a remaining activity at 10 µM [6, 13] of 95.8%. It also gave a remaining activity at 10 µM [7, 11] of 104%, a remaining activity at 10 µM [7, 12] of 104% and a remaining activity at 10 µM [7, 13] of 103%. It also gave a remaining activity at 10 µM [8, 11] of 95.7%, a remaining activity at 10 µM [8, 12] of 99.5% and a remaining activity at 10 µM [8, 13] of 91.8%. For the same molecule, the remaining activity at 10 µM [9, 11] was 104%, the remaining activity at 10 µM [9, 12] was 105% and the remaining activity at 10 µM [9, 13] was 103%. It also gave a remaining activity at 10 µM [10, 11] of 107%, a remaining activity at 10 µM [10, 12] of 107% and a remaining activity at 10 µM [10, 13] of 108%.
